From patent publication US12085534B2, “Multiplexable super-resolution force spectroscopy using ultrasound methods and magnetic detection” (University of Houston System, priority 2018, dated 2024)

System: 11-bp DNA: ds(CCAAT CGA CCC)
Experiment: SURFS force spectrum of drug-bound DNA duplex (dissociation voltage)
Assay type: binding
Details: daunomycin-11-bp DNA vs 12-bp DNA
Method: A piezo plate was placed on a piece of rubber. On top of the piezo, a water reservoir was constructed. The sample was mounted on a glass rod for scanning. The bottom of the sample, which contains the immobilized molecular system, makes contact with the water surface prior to ultrasound application. The water level was carefully monitored to be constant during experiment. […] A DNA duplex with 12-basepair (bp) was used to calculate the force resolution. The dissociation voltage was determined to be 0.204 V on the function generator, with ±0.001 V resolution. […] Because the acoustic radiation force is proportional to the ultrasound power, or V^2, the force resolution can be calculated as δF=(2δV/V)*F=(2*0.001/0.204)*45=0.5 pN (1)
In FIG. 4a, the force spectra of 12-bp DNA and daunomycin bound 11-bp DNA are compared. The two dissociation voltages were well distinguished, with the former at 0.204 V and the latter at 0.226 V. However, previous techniques of the prior art cannot distinguish the two forces, which are 45^±2 and 48^±2 pN respectively.

In the case of `COc1cccc2c1C(=O)c1c(O)c3c(c(O)c1C2=O)C[C@@](O)(C(C)=O)C[C@@H]3O[C@H]1C[C@H](N)[C@H](O)[C@H](C)O1` [daunomycin], the “binding strength compared with 12-bp DNA” value was “stronger than 12-bp DNA”.
